Measured values published in patent US20190225650A1, “PEPTIDOMIMETIC MACROCYCLES AND USE THEREOF IN REGULATING HIF1ALPHA” (AILERON THERAPEUTICS, INC., priority 2013, published 2019).
Bridge positions count the residues as written; N and C are the ends. Square brackets hold non-standard residues; d marks the D form. Peptide text beside a SMILES is read from it. R8 = C=CCCCCCC[C@@](C)(N)C(=O)O; S5 = C=CCCC[C@](C)(N)C(=O)O; Nle = CCCC[C@H](N)C(=O)O; Abu = CC[C@H](N)C(=O)O

Legend:
HRE-bla ME-180 cells [1] = assay: Reporter gene assay (HRE-bla ME-180 HIF reporter, GeneBLAzer); assay type: cell-based, human; conditions: for EC50: 24 hour normoxia
Procedure, shortened: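 A FRET β-lactamase readout of HIF transcription was used. After compound treatment in 0.3% DMSO/media under normoxic conditions, 20 μl of 6× LiveBLAzer-FRET B/G (CCF4-AM) substrate was added. Plates sat 3 hr at room temperature in the dark and were read at 409 Ex/460Em and 409Ex/530Em on a Synergy 2. Inhibition was compared against DMSO vehicle controls, with chetomin as positive control.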

HRE-bla ME-180 cells [2] = assay: Cell proliferation assay (viability, MTT, 1% FBS); assay type: cell-based, human
Protocol: The human cervical cell line HRE-Bla ME-180 was obtained from Invitrogen. 2×10^4 ME-180 cells were plated in 96-well plates (costar) in Opti-MEM plus 1% FBS (Invitrogen). After 4 hr, cells were pretreated with chetomin, peptide or 0.5% DMSO (final concentration in media) vehicle control for 16 hr under normoxia (21% O2); then incubation continued under normoxia or hypoxia (1% O2) using a hypoxia incubator (Thermo Forma model). Viable cell numbers were quantified using CellTiter 96 Non-Radioactive Cell Proliferation kit (Promega, G4100). The results are presented in the column “Viability 1% FBS AVG (MTT V3-24 hr Normoxia) (μM)” of Table 6.

Row | Structure (SMILES) | EC50 (HRE-bla ME-180 cells [1]) [µM] | 18 h Avg % max inhibition at top conc (HIF Rptr-24 hrs normoxia) (μM) (HRE-bla ME-180 cells [1]) | Viability 1% FBS AVG (MTT V3-24 hr Normoxia) (μM) (HRE-bla ME-180 cells [2])
1 | CC[C@H](C)[C@H](NC(=O)[C@H](CC(N)=O)NC(=O)[C@@H](NC(=O)[C@H](CCC(N)=O)NC(=O)[C@H](CC(=O)O)NC(=O)[C@H](CC(C)C)NC(=O)[C@H](C)NC(=O)[C@H](CCCNC(=N)N)NC(=O)[C@H](CC(C)C)NC(=O)[C@H](CC(C)C)NC(=O)[C@H](CCC(=O)O)NC(=O)[C@H](CCC(=O)O)NC(=O)CNC(=O)[C@H](CCC(N)=O)NC(=O)[C@H](CC(C)C)NC(=O)[C@H](CC(C)C)NC(C)=O)C(C)C)C(=O)N[C@@H](CC(=O)O)C(=O)N[C@@H](CCC(=O)O)C(=O)N[C@@H](CCC(=O)O)C(=O)N[C@H](C(=O)N[C@@H](CC(C)C)C(=O)N[C@@H](CCSC)C(=O)N[C@@]1(C)CCCC=CCCC[C@@](C)(C(=O)N[C@@H](CCSC)C(N)=O)NC(=O)[C@H]([C@@H](C)CC)NC(=O)[C@H](C(C)C)NC(=O)[C@H](CC(C)C)NC1=O)C(C)C [SP-319] (Ac-LLQGEELLRALDQVNIDEEVLM[S5]LVI[S5]M-NH2; staple 23-27) | > 30 | + (<10: +) | ++++ (≥30: ++++)
2 | CCCC[C@H](NC(=O)[C@H](C)NC(=O)[C@]1(C)CCCC=CCCCCCC[C@@](C)(NC(=O)[C@H](C)NC(=O)[C@H](C)NC(=O)[C@@H](NC(=O)[C@H](CC(N)=O)NC(=O)[C@@H](NC(=O)[C@H](CCC(N)=O)NC(=O)[C@]2(C)CCCC=CCCC[C@](C)(NC(=O)[C@H](CC(C)C)NC(=O)[C@H](C)NC(=O)[C@H](C)NC(=O)CNC(=O)[C@H](CCC(N)=O)NC(=O)[C@H](CC(C)C)NC(=O)[C@H](CC(C)C)NC(C)=O)C(=O)N[C@@H](CCCNC(=N)N)C(=O)N[C@@H](C)C(=O)N[C@@H](CC(C)C)C(=O)N2)C(C)C)[C@@H](C)CC)C(=O)N[C@@H](C(C)C)C(=O)N[C@@H](CC(C)C)C(=O)N[C@@H](CCCC)C(=O)N[C@@H](CO)C(=O)N[C@@H](CC(C)C)C(=O)N[C@@H](C(C)C)C(=O)N1)C(N)=O [SP-364] (Ac-LLQGAAL[S5]RAL[S5]QVNIAA[R8]VL[Nle]SLV[S5]A[Nle]-NH2; staple 8-12, 19-26) | > 30 | ++ (≤10 but <25: ++) | ++++ (≥30: ++++)
3 | CCCC[C@H](NC(=O)[C@H](CCC(=O)O)NC(=O)[C@@H](NC(=O)[C@@H](NC(=O)[C@H](CC(C)C)NC(=O)[C@]1(C)CCCC=CCCC[C@](C)(NC(=O)[C@H](CCC(=O)O)NC(=O)[C@H](CC(=O)O)NC(=O)[C@@H](NC(=O)[C@H](Cc2ccccc2)NC(C)=O)[C@@H](C)CC)C(=O)N[C@@H](C(C)C)C(=O)N[C@@H](CC(C)C)C(=O)N[C@@H](CCSC)C(=O)N1)C(C)C)[C@@H](C)CC)C(=O)N[C@@H](C)C(=O)N[C@@H](CC(C)C)C(=O)N[C@@H](CC(=O)O)C(=O)N[C@@H](CCCNC(=N)N)C(=O)N[C@H](C(N)=O)[C@@H](C)CC [SP-119] (Ac-FIDE[S5]VLM[S5]LVIE[Nle]ALDRI-NH2; staple 5-9) | > 30 | +++ (≤25 but <50: +++) | ++++ (≥30: ++++)
4 | CC[C@@H]1NC(=O)[C@H](CC(=O)O)NC(=O)[C@H](Cc2ccc(O)cc2)NC(=O)[C@@](C)(NC(=O)[C@@H](NC(=O)[C@H](CC(C)C)NC(=O)[C@H](CCC(N)=O)NC(=O)[C@@H]2CCCN2C(=O)[C@H](CC(C)C)NC(=O)[C@H](CCC(=O)O)NC(=O)[C@H](CCCCN)NC(=O)[C@@H](NC(=O)[C@H](CCCNC(=N)N)NC(=O)[C@H](CC(=O)O)NC(=O)[C@H](CC(C)C)NC(=O)CNC(=O)[C@H](CCSC)NC(=O)[C@H](CCC(=O)O)NC(=O)[C@@H](NC(=O)[C@@H](NC(=O)[C@H](CC(C)C)NC(=O)[C@]2(C)CCCC=CCCC[C@](C)(NC(=O)[C@H](CCC(=O)O)NC(=O)[C@H](CC(=O)O)NC(=O)[C@@H](NC(=O)[C@H](Cc3ccccc3)NC(C)=O)[C@@H](C)CC)C(=O)N[C@@H](C(C)C)C(=O)N[C@@H](CC(C)C)C(=O)N[C@@H](CCSC)C(=O)N2)C(C)C)[C@@H](C)CC)[C@@H](C)CC)[C@@H](C)O)CCCC=CCCC[C@@](C)(C(=O)N[C@H](C(=O)N[C@@H](CC(N)=O)C(=O)N[C@@H](C)C(N)=O)C(C)C)NC1=O [SP-322] (Ac-FIDE[S5]VLM[S5]LVIEMGLDRIKELPQLT[S5]YD[Abu][S5]VNA-NH2; staple 5-9, 27-31) | > 30 | + (<10: +) | ++++ (≥30: ++++)
5 | CCCC[C@H](NC(=O)[C@H](CCC(=O)O)NC(=O)[C@@H](NC(=O)[C@@H](NC(=O)[C@H](CC(C)C)NC(=O)[C@]1(C)CCCC=CCCC[C@](C)(NC(=O)[C@H](CCC(=O)O)NC(=O)[C@H](CC(=O)O)NC(=O)[C@@H](NC(=O)[C@H](CC(N)=O)NC(=O)[C@@H](NC(=O)[C@H](CCC(N)=O)NC(=O)[C@H](CC(=O)O)NC(=O)[C@H](CC(C)C)NC(=O)[C@H](C)NC(=O)[C@H](CCCNC(=N)N)NC(=O)[C@]2(C)CCCC=CCCC[C@](C)(NC(=O)[C@H](CCC(N)=O)NC(=O)[C@H](CC(C)C)NC(=O)[C@H](CC(C)C)NC(C)=O)C(=O)N[C@@H](CCC(=O)O)C(=O)N[C@@H](CCC(=O)O)C(=O)N[C@@H](CC(C)C)C(=O)N2)C(C)C)[C@@H](C)CC)C(=O)N[C@@H](C(C)C)C(=O)N[C@@H](CC(C)C)C(=O)N[C@@H](CCCC)C(=O)N1)C(C)C)[C@@H](C)CC)C(=O)NCC(N)=O [SP-325] (Ac-LLQ[S5]EEL[S5]RALDQVNIDE[S5]VL[Nle][S5]LVIE[Nle]G-NH2; staple 4-8, 19-23) | > 30 | + (<10: +) | ++++ (≥30: ++++)
6 | CCCC[C@H](NC(=O)[C@H](CC(C)C)NC(=O)[C@@H](NC(=O)[C@H](CCC(=O)O)NC(=O)[C@H](CCC(=O)O)NC(=O)[C@H](CC(=O)O)NC(=O)[C@@H](NC(=O)[C@H](Cc1ccccc1)NC(C)=O)[C@@H](C)CC)C(C)C)C(=O)N[C@@]1(C)CCCC=CCCC[C@@](C)(C(=O)N[C@@H](CCCC)C(=O)N[C@@H](C)C(=O)N[C@@H](CC(C)C)C(N)=O)NC(=O)[C@H]([C@@H](C)CC)NC(=O)[C@H](C(C)C)NC(=O)[C@H](CC(C)C)NC1=O [SP-8] (Ac-FIDEEVL[Nle][S5]LVI[S5][Nle]AL-NH2; staple 9-13) | – | – | ++++ (≥30: ++++)

Continued, in another order:

Row | EC50 (HRE-bla ME-180 cells [1]) [µM] | Structure (SMILES) | 18 h Avg % max inhibition at top conc (HIF Rptr-24 hrs normoxia) (μM) (HRE-bla ME-180 cells [1]) | Viability 1% FBS AVG (MTT V3-24 hr Normoxia) (μM) (HRE-bla ME-180 cells [2])
7 | > 30 | CCCC[C@H](NC(=O)[C@H](CCC(=O)O)NC(=O)[C@@H](NC(=O)[C@@H](NC(=O)[C@H](CC(C)C)NC(=O)[C@]1(C)CCCC=CCCC[C@](C)(NC(=O)[C@H](CCC(=O)O)NC(=O)[C@H](CC(=O)O)NC(=O)[C@@H](NC(=O)[C@H](Cc2ccccc2)NC(C)=O)[C@@H](C)CC)C(=O)N[C@@H](CO)C(=O)N[C@@H](CC(C)C)C(=O)N[C@@H](CCCC)C(=O)N1)C(C)C)[C@@H](C)CC)C(=O)N[C@@H](C)C(=O)N[C@@H](CC(C)C)C(N)=O [SP-140] (Ac-FIDE[S5]SL[Nle][S5]LVIE[Nle]AL-NH2; staple 5-9) | +++ (≤25 but <50: +++) | +++ (≤15 but <30: +++)
8 | > 30 | CC[C@H](C)[C@H](NC(=O)[C@H](Cc1ccccc1)NC(C)=O)C(=O)N[C@@H](CC(=O)O)C(=O)N[C@@H](CCC(=O)O)C(=O)N[C@H](C(=O)N[C@H](C(=O)N[C@@H](CC(C)C)C(=O)N[C@@H](CCSC)C(=O)N[C@@]1(C)CCCC=CCCC[C@@](C)(C(=O)N[C@@H](CCSC)C(=O)N[C@@H](C)C(=O)N[C@@H](CC(C)C)C(N)=O)NC(=O)[C@H]([C@@H](C)CC)NC(=O)[C@H](C(C)C)NC(=O)[C@H](CC(C)C)NC1=O)C(C)C)[C@@H](C)O [SP-239] (Ac-FIDETVLM[S5]LVI[S5]MAL-NH2; staple 9-13) | ++ (≤10 but <25: ++) | ++++ (≥30: ++++)
9 | ≤ 5 | CCCC[C@H](NC(=O)[C@H](Cc1ccccc1)NC(=O)[C@@H](NC(=O)[C@H](C)NC(=O)[C@H](CCC(N)=O)NC(=O)[C@H](CC(=O)O)NC(=O)[C@@H](NC(=O)[C@H](Cc1ccccc1)NC(C)=O)[C@@H](C)CC)C(C)C)C(=O)N[C@@]1(C)CCCC=CCCC[C@@](C)(C(=O)N[C@@H](CCCC)C(=O)N[C@@H](C)C(=O)N[C@@H](CC(C)C)C(=O)N[C@@H](CC(C)C)C(N)=O)NC(=O)[C@H]([C@@H](C)CC)NC(=O)[C@H](C(C)C)NC(=O)[C@H](Cc2c[nH]cn2)NC1=O [SP-254] (Ac-FIDQAVF[Nle][S5]HVI[S5][Nle]ALL-NH2; staple 9-13) | +++ (≤25 but <50: +++) | + (<5: +)
10 | > 30 | CCCC[C@H](NC(=O)[C@H](CC(C)C)NC(=O)[C@@H](NC(=O)[C@H](C)NC(=O)[C@H](CCC(N)=O)NC(=O)[C@H](CC(=O)O)NC(=O)[C@@H](NC(=O)[C@H](Cc1ccccc1)NC(C)=O)[C@@H](C)CC)C(C)C)C(=O)N[C@@]1(C)CCCC=CCCC[C@@](C)(C(=O)N[C@@H](CCCC)C(=O)N[C@@H](C)C(=O)N[C@@H](CC(C)C)C(=O)N[C@@H](CC(N)=O)C(=O)N[C@@H](CCCNC(=N)N)C(=O)N[C@H](C(N)=O)[C@@H](C)CC)NC(=O)[C@H]([C@@H](C)CC)NC(=O)[C@H](C(C)C)NC(=O)[C@H](CC(C)C)NC1=O [SP-273] (Ac-FIDQAVL[Nle][S5]LVI[S5][Nle]ALNRI-NH2; staple 9-13) | +++ (≤25 but <50: +++) | ++++ (≥30: ++++)
